Columns and labels:
[1] = system: cultured cells of Taxus baccata LINN; assay: Taxane-type diterpene yield and cell yield, shake culture of Taxus baccata cells with a jasmonic acid (or jasmone) added; format: cell-based; details: for yield of baccatin III / yield of cephalomannine / yield of taxol: cell + medium
[2] = system: cultured cells of Taxus baccata LINN; assay: Two-stage culture: first stage with potassium peroxodisulfate, second stage with methyl jasmonate; cell yield and taxol yield; format: cell-based; details: for yield of cells, second stage of the culture / yield of taxol, second stage of the culture: second stage with methyl jasmonate 100 μM on the 14th day; for content of taxol, first stage of the culture / yield of cells, first stage of the culture: added 1st day
Description: After completing the culture, the cultured cells were harvested by filtration and a part of the cells were used as seed cells for the second stage of the culture and the rest of the cells were subjected to the measurement of the cell yield and the taxane content in the cells. Accordingly, 1 g (fresh weight) of the cultured cells were inoculated to an Erlenmeyer flask containing 20 ml of liquid Woody Plant Medium to which naphthalenacetic acid had been added to give the concentration of 10^−5M and shake culture was carried out at 25° C. for 14 days. On the 14th day of the culture, methyl jasmonate was added to the medium to give the concentration in the medium of 100 μM and the culture was further continued for another 7 days. On the other hand, the rest of the cells obtained in the first stage of the culture were lyophilized, then the dry weight was measured to obtain the cell yield thereof per liter of the liquid medium. The content of taxol in the dried cells was measured by high performance liquid chromatography. The yield of the cells and the yield of taxol were measured for the cells obtained by second stage of the culture in the same manner as that for the cells obtained in the first stage of the culture.

[3] = first stage with potassium peroxodisulfate 5 × 10^−3M
[4] = first stage with potassium peroxodisulfate 5 × 10^−4M
[5] = first stage with potassium peroxodisulfate 10^−3M
[6] = first stage with potassium peroxodisulfate 10^−4M
[7] = first stage with potassium peroxodisulfate 10^−5M
[8] = potassium peroxodisulfate 5 × 10^−3M in the medium
[9] = potassium peroxodisulfate 5 × 10^−4M in the medium
[10] = potassium peroxodisulfate 10^−3M in the medium
[11] = potassium peroxodisulfate 10^−4M in the medium
[12] = potassium peroxodisulfate 10^−5M in the medium

CCC=CCC1=C(C)CCC1=O [Comparative Example 24]
cell yield ([1]; jasmone 0.1 μM): 12.2 g/L | yield of baccatin III ([1]; jasmone 0.1 μM): 0.3 mg/L | yield of cephalomannine ([1]; jasmone 0.1 μM): 1.2 mg/L | yield of taxol ([1]; jasmone 0.1 μM): 3.0 mg/L | cell yield ([1]; jasmone 1 μM): 12.1 g/L | yield of baccatin III ([1]; jasmone 1 μM): 0.4 mg/L | yield of cephalomannine ([1]; jasmone 1 μM): 1.0 mg/L | yield of taxol ([1]; jasmone 1 μM): 3.2 mg/L | cell yield ([1]; jasmone 10 μM): 11.3 g/L | yield of baccatin III ([1]; jasmone 10 μM): 0.3 mg/L | yield of cephalomannine ([1]; jasmone 10 μM): 0.8 mg/L | yield of taxol ([1]; jasmone 10 μM): 3.3 mg/L | cell yield ([1]; jasmone 100 μM): 11.3 g/L | yield of baccatin III ([1]; jasmone 100 μM): 0.3 mg/L | yield of cephalomannine ([1]; jasmone 100 μM): 0.6 mg/L | yield of taxol ([1]; jasmone 100 μM): 3.2 mg/L | cell yield ([1]; jasmone 1000 μM): 10.9 g/L | yield of baccatin III ([1]; jasmone 1000 μM): 0.2 mg/L | yield of cephalomannine ([1]; jasmone 1000 μM): 0.8 mg/L | yield of taxol ([1]; jasmone 1000 μM): 2.5 mg/L

O=S(=O)([O-])OOS(=O)(=O)[O-].[K+].[K+] [Example 77]
yield of cells, second stage of the culture [2, 3]: 12.1 g/L | yield of taxol, second stage of the culture [2, 3]: 11.7 ppm | yield of cells, second stage of the culture [2, 4]: 14.4 g/L | yield of taxol, second stage of the culture [2, 4]: 16.3 ppm | yield of cells, second stage of the culture [2, 5]: 13.0 g/L | yield of taxol, second stage of the culture [2, 5]: 13.6 ppm | yield of cells, second stage of the culture [2, 6]: 15.0 g/L | yield of taxol, second stage of the culture [2, 6]: 20.4 ppm | yield of cells, second stage of the culture [2, 7]: 15.6 g/L | yield of taxol, second stage of the culture [2, 7]: 14.0 ppm | content of taxol, first stage of the culture [2, 8]: 45 ppm | yield of cells, first stage of the culture [2, 8]: 14.0 g/L | content of taxol, first stage of the culture [2, 9]: 183 ppm | yield of cells, first stage of the culture [2, 9]: 15.5 g/L | content of taxol, first stage of the culture [2, 10]: 84 ppm | yield of cells, first stage of the culture [2, 10]: 15.2 g/L | content of taxol, first stage of the culture [2, 11]: 250 ppm | yield of cells, first stage of the culture [2, 11]: 16.2 g/L | content of taxol, first stage of the culture [2, 12]: 97 ppm | yield of cells, first stage of the culture [2, 12]: 17.1 g/L

CC/C=C\CC1=C(C)CCC1=O [jasmone, reference compound]
taxol inducing activity ([1]; see Comparative Example No. 24): low
